PubChem BioAssay AID212 (DTP/NCI, 2004)
Values joined by “and” are separate entries in the source; they are usually repeats but may differ in a detail not shown here. Equal entries are not always repeated. Records with an inconclusive call do not appear.

System: BDF1 mice, colon carcinoma 38 sc, T/C %
Experiment: NCI In Vivo Anticancer Drug Screen. Data for tumor model Colon Carcinoma 38 (subcutaneous) in B6D2F1 (BDF1) mice
How it was run: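 Ratio of survival or tumor size, compound-treated animals relative to vehicle controls, in tumor-bearing mice.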

[1] = endpoint: median tumor weight (est.), dose: 50.0 mg/kg/injection, schedule: Q07DX002 (ip), vehicle: saline with Tween-80, higher = larger tumour
[2] = endpoint: median tumor weight (est.), dose: 50.0 mg/kg/injection, schedule: Q07DX002 (ip), vehicle: saline, higher = larger tumour
[3] = endpoint: median tumor weight (est.), dose: 100.0 mg/kg/injection, schedule: Q07DX002 (ip), vehicle: saline with Tween-80, higher = larger tumour
[4] = endpoint: median tumor weight (est.), dose: 100.0 mg/kg/injection, schedule: Q07DX002 (ip), vehicle: saline, higher = larger tumour
[5] = endpoint: median tumor weight (est.), dose: 200.0 mg/kg/injection, schedule: Q07DX002 (ip), vehicle: saline with Tween-80, higher = larger tumour
[6] = endpoint: median tumor weight (est.), dose: 200.0 mg/kg/injection, schedule: Q07DX002 (ip), vehicle: saline, higher = larger tumour
[7] = endpoint: median tumor weight (est.), dose: 400.0 mg/kg/injection, schedule: Q07DX002 (ip), vehicle: saline with Tween-80, higher = larger tumour
[8] = endpoint: median tumor weight (est.), dose: 400.0 mg/kg/injection, schedule: Q07DX002 (ip), vehicle: saline, higher = larger tumour
[9] = endpoint: median tumor weight (est.), dose: 800.0 mg/kg/injection, schedule: Q07DX002 (ip), vehicle: saline, higher = larger tumour
[10] = endpoint: median tumor weight (est.), dose: 12.5 mg/kg/injection, schedule: Q07DX002 (ip), vehicle: saline with Tween-80, higher = larger tumour

For `O=c1[nH]c(=O)n(C2CC(O)C(CO)O2)cc1I` (stereo not given), the T/C [1] was 79 % of control, the T/C [2] was 44 % of control and the T/C [3] was 69 % of control. For the same compound, the T/C [4] was 50 % of control, the T/C [5] was 102 % of control and the T/C [6] was 44 % of control. The T/C (endpoint: median tumor weight (est.), dose: 200.0 mg/kg/injection, schedule: Q07DX002 (ip), vehicle: suspension in saline, higher = larger tumour) was 57 % of control, the T/C [7] was 105 % of control and the T/C [8] was 44 % of control. The T/C (endpoint: median tumor weight (est.), dose: 400.0 mg/kg/injection, schedule: Q07DX002 (ip), vehicle: suspension in saline, higher = larger tumour) was 102 % of control, the T/C (endpoint: median tumor weight (est.), dose: 800.0 mg/kg/injection, schedule: Q07DX002 (ip), vehicle: saline with Tween-80, higher = larger tumour) was 75 % of control and the T/C [9] was 18 % of control. The T/C (endpoint: median tumor weight (est.), dose: 800.0 mg/kg/injection, schedule: Q07DX002 (ip), vehicle: suspension in saline, higher = larger tumour) was 59 % of control, the T/C (endpoint: median tumor weight (est.), dose: 1600.0 mg/kg/injection, schedule: Q07DX002 (ip), vehicle: saline with Tween-80, higher = larger tumour) was 48 % of control and the T/C (endpoint: median tumor weight (est.), dose: 1600.0 mg/kg/injection, schedule: Q07DX002 (ip), vehicle: saline, higher = larger tumour) was 1 % of control.

In the case of `Cc1nnc2ncccn12`, the T/C [2] is reported as 84 % of control and 105 % of control, the T/C [6] is reported as 113 % of control and 102 % of control and the T/C [8] is reported as 81 % of control.

With `COC1=C(OC)C(=O)C(C/C=C(\C)CC/C=C(\C)CC/C=C(\C)CC/C=C(\C)CC/C=C(\C)CC/C=C(\C)CC/C=C(\C)CC/C=C(\C)CC/C=C(\C)CCC=C(C)C)=C(C)C1=O` the T/C [10] was 202 % of control, the T/C [1] was 86 % of control and the T/C [3] was 83 % of control. The T/C [5] was 121 % of control and the T/C [7] was 110 % of control.

With `CC1(C)CC(=O)C(CSC(=O)c2ccccc2)C(=O)C1` the T/C (endpoint: median tumor weight (est.), dose: 12.5 mg/kg/injection, schedule: Q07DX002 (ip), vehicle: Klucel (hydroxypropylcellulose) (HPC), higher = larger tumour) was 120 % of control and 104 % of control, the T/C (endpoint: median tumor weight (est.), dose: 25.0 mg/kg/injection, schedule: Q07DX002 (ip), vehicle: Klucel (hydroxypropylcellulose) (HPC), higher = larger tumour) was 113 % of control and 104 % of control and the T/C (endpoint: median tumor weight (est.), dose: 100.0 mg/kg/injection, schedule: Q07DX002 (ip), vehicle: Klucel (hydroxypropylcellulose) (HPC), higher = larger tumour) was 88 % of control.

For `CC1(C)N=C(N)N=C(N)N1c1ccc(CCCCc2ccc(S(=O)(=O)F)cc2Cl)c(Cl)c1`, the T/C (endpoint: median survival time, dose: 35.0 mg/kg/injection, schedule: Q01DX013 (ip), vehicle: saline with Tween-80, higher = longer survival) was 117 % of control, the T/C (endpoint: median survival time, dose: 92.0 mg/kg/injection, schedule: Q01DX013 (ip), vehicle: saline with Tween-80, higher = longer survival) was 157 % of control and the T/C (endpoint: median tumor weight (est.), dose: 6.25 mg/kg/injection, schedule: Q07DX002 (ip), vehicle: saline, higher = larger tumour) was 44 % of control. For the same compound, the T/C [2] was 78 % of control and the T/C [6] was 1 % of control and 24 % of control and 26 % of control.

With `CCOC(=O)C1C2OC(=O)C(C(=O)C2CN(CCCl)CCCl)C1C1CC=C(CC2=CCC(C3C4C(=O)OC(C(CN(CCCl)CCCl)C4=O)C3C(=O)OCC)CC2)CC1` (stereo not given) the T/C (endpoint: median tumor weight (est.), dose: 12.5 mg/kg/injection, schedule: Q07DX003 (ip), vehicle: Klucel (hydroxypropylcellulose) (HPC), higher = larger tumour) was 95 % of control, the T/C (endpoint: median tumor weight (est.), dose: 25.0 mg/kg/injection, schedule: Q07DX003 (ip), vehicle: Klucel (hydroxypropylcellulose) (HPC), higher = larger tumour) was 117 % of control and the T/C (endpoint: median tumor weight (est.), dose: 50.0 mg/kg/injection, schedule: Q07DX003 (ip), vehicle: Klucel (hydroxypropylcellulose) (HPC), higher = larger tumour) was 116 % of control. For the same compound, the T/C (endpoint: median tumor weight (est.), dose: 100.0 mg/kg/injection, schedule: Q07DX003 (ip), vehicle: Klucel (hydroxypropylcellulose) (HPC), higher = larger tumour) was 110 % of control and the T/C (endpoint: median tumor weight (est.), dose: 200.0 mg/kg/injection, schedule: Q07DX003 (ip), vehicle: Klucel (hydroxypropylcellulose) (HPC), higher = larger tumour) was 67 % of control.

With `C=C1C(=O)C23[C@H](O)C1CC[C@H]2[C@]12COC3(O)[C@@H](O)[C@@H]1C(C)(C)CC[C@@H]2O` the T/C (endpoint: median tumor weight (est.), dose: 1.56 mg/kg/injection, schedule: Q07DX002 (ip), vehicle: saline with Tween-80, higher = larger tumour) was 104 % of control, the T/C (endpoint: median tumor weight (est.), dose: 3.12 mg/kg/injection, schedule: Q07DX002 (ip), vehicle: saline with Tween-80, higher = larger tumour) was 112 % of control and 96 % of control and the T/C (endpoint: median tumor weight (est.), dose: 6.25 mg/kg/injection, schedule: Q07DX002 (ip), vehicle: saline with Tween-80, higher = larger tumour) was 100 % of control. The T/C [10] was 80 % of control.

With `C[C@@H](CN1CC(=O)NC(=O)C1)N1CC(=O)NC(=O)C1` the T/C (endpoint: median tumor weight (est.), dose: 25.0 mg/kg/injection, schedule: Q07DX002 (ip), vehicle: saline, higher = larger tumour) was 87 % of control, the T/C [2] was 95 % of control and the T/C [4] was 97 % of control. For the same compound, the T/C (endpoint: median tumor weight (est.), dose: 100.0 mg/kg/injection, schedule: Q07DX003 (ip), vehicle: saline, higher = larger tumour) was 71 % of control, the T/C [6] was 110 % of control and the T/C (endpoint: median tumor weight (est.), dose: 200.0 mg/kg/injection, schedule: Q07DX003 (ip), vehicle: saline, higher = larger tumour) was 71 % of control. The T/C [8] was 93 % of control, the T/C (endpoint: median tumor weight (est.), dose: 400.0 mg/kg/injection, schedule: Q07DX003 (ip), vehicle: saline, higher = larger tumour) was 71 % of control and the T/C [9] was 66 % of control. For the same compound, the T/C (endpoint: median tumor weight (est.), dose: 800.0 mg/kg/injection, schedule: Q07DX003 (ip), vehicle: saline, higher = larger tumour) was 38 % of control.
